The supplement of paper PMC11208160

Assay: recombinant barcode read abundance after kanamycin selection (control-corrected) (log10(CPM+1)); higher = more efficient recombination; sequences stand for … in AGTGCAGAGAAAATCGGCCAGTTTTCTCTGCCTGCAGTCCGCATGCCGT…AGATTTATGCAGCGGACTGCCTTTCTCCCAAAGTGATAAACCGGACAGTATCATGGACCGGTTTTCCCGGTAATCCGTATTTGCAAGGTTGGTTTCACT; site = the 11-nt target
Method in brief: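 Targets were screened in pooled form in E. coli against IS621 bridge RNA target-binding loops. Recombination efficiency is based on barcode counts at recombinant junctions in counts per million, averaged and corrected for the control. Numbers are shown as log10(CPM+1), with duplicate plates on chloramphenicol/ampicillin LB agar (control) or chloramphenicol/ampicillin/kanamycin with 0.1 mM IPTG.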
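Note: IS621 recombinase and bridge RNA in Escherichia coli cells.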

Sequence	recombinant barcode read abundance (log10)
TAGTACTCTTGGGTTCTAACCTGTTGCTC (site TAGTACTCTGA)	1.52
TAGTACTCTTGGGTTCTAACCTGTTGCTC (site TAGTACTCTTA)	0.124
TAGTATACTTGGGTTCTAACCTGTTGCTG (site TAGTATACTCA)	1.16
TAGTATACTTGGGTTCTAACCTGTTGCTG (site TCGTATACTCC)	0.0803
TAGTATCCTTGGGTTCTAACCTGTTGCCT (site TAGTAAGCTAG)	0.433
TAGTATCCTTGGGTTCTAACCTGTTGCCT (site TAGTATCCTAG)	1.04
TAGTATGCTTGGGTTCTAACCTGTTGCTA (site TAGTATCCTTA)	0.0173
TAGTATGCTTGGGTTCTAACCTGTTGCTA (site TAGTATGCTTA)	1.39
TAGTCAACTTGGGTTCTAACCTGTTGCGT (site TAGTCAACTAC)	0.593
TAGTCAACTTGGGTTCTAACCTGTTGCGT (site TGGCCAACTAC)	0.0928
TAGTCAGCTTGGGTTCTAACCTGTTGCAC (site TAGTCAGCTGT)	1.2
TAGTCAGCTTGGGTTCTAACCTGTTGCAC (site TGGTCGGCTGT)	0.00985
TAGTCCTCTTGGGTTCTAACCTGTTGCTA (site TAGTCCTCTAA)	0.0289
TAGTCCTCTTGGGTTCTAACCTGTTGCTA (site TAGTCCTCTCA)	0.0797
TAGTCCTCTTGGGTTCTAACCTGTTGCTA (site TAGTCCTCTGA)	0.0492
TAGTCCTCTTGGGTTCTAACCTGTTGCTA (site TAGTCCTCTTA)	1.05
TAGTCCTCTTGGGTTCTAACCTGTTGCTC (site TAGTCCTCTAA)	0.0149
TAGTCCTCTTGGGTTCTAACCTGTTGCTC (site TAGTCCTCTCA)	0.0708
TAGTCCTCTTGGGTTCTAACCTGTTGCTC (site TAGTCCTCTGA)	0.935
TAGTCCTCTTGGGTTCTAACCTGTTGCTC (site TAGTCCTCTTA)	0.118
TAGTGAACTTGGGTTCTAACCTGTTGCAC (site GCCGAGCCTTG)	0.0124
TAGTGAACTTGGGTTCTAACCTGTTGCAC (site TAGTGAACTGT)	0.347

Sequence	recombinant barcode read abundance (log10)
TAGTGCTCTTGGGTTCTAACCTGTTGCCA (site TAGTGCTCTAG)	0.444
TAGTGCTCTTGGGTTCTAACCTGTTGCCA (site TAGTGCTCTCG)	0.0477
TAGTGCTCTTGGGTTCTAACCTGTTGCCA (site TAGTGCTCTGG)	0.00954
TAGTGCTCTTGGGTTCTAACCTGTTGCCA (site TAGTGCTCTTG)	1.16
TAGTGCTCTTGGGTTCTAACCTGTTGCCG (site TAGTGCTCTAG)	0.595
TAGTGCTCTTGGGTTCTAACCTGTTGCCG (site TAGTGCTCTCG)	1.24
TAGTGCTCTTGGGTTCTAACCTGTTGCCG (site TAGTGCTCTGG)	0.0187
TAGTGCTCTTGGGTTCTAACCTGTTGCCG (site TAGTGCTCTTG)	0.355
TAGTGCTCTTGGGTTCTAACCTGTTGCTC (site TAGAGCTCTCA)	0.185
TAGTGCTCTTGGGTTCTAACCTGTTGCTC (site TAGTGCTCTGA)	1.07
TAGTGGACTTGGGTTCTAACCTGTTGCCA (site TAGTGGACTTG)	0.466
TAGTGGACTTGGGTTCTAACCTGTTGCCA (site TAGTGGCCTTG)	0.151
TAGTGTGCTTGGGTTCTAACCTGTTGCTT (site TAGTGTGCTAA)	0.31
TAGTGTGCTTGGGTTCTAACCTGTTGCTT (site TAGTGTGCTAC)	0.117
TAGTTACCTTGGGTTCTAACCTGTTGCCG (site TACTTAGCTCG)	0.00977
TAGTTACCTTGGGTTCTAACCTGTTGCCG (site TAGTTACCTCG)	0.612
TAGTTAGCTTGGGTTCTAACCTGTTGCCC (site TAGTTAGCTAG)	0.0394
TAGTTAGCTTGGGTTCTAACCTGTTGCCC (site TAGTTAGCTCG)	0.0413
TAGTTAGCTTGGGTTCTAACCTGTTGCCC (site TAGTTAGCTGG)	0.945
TAGTTAGCTTGGGTTCTAACCTGTTGCCC (site TAGTTAGCTTG)	0.0262
TAGTTGACTTGGGTTCTAACCTGTTGCCA (site TAGTTAACTTG)	0.45
TAGTTGACTTGGGTTCTAACCTGTTGCCA (site TAGTTCACTTG)	0.00742

Sequence	recombinant barcode read abundance (log10)
TAGTTGACTTGGGTTCTAACCTGTTGCCA (site TAGTTGACTTG)	0.986
TAGTTGACTTGGGTTCTAACCTGTTGCCA (site TAGTTTACTTG)	0.0255
TATAAGACTTGGGTTCTAACCTGTTGCAC (site TAGAAGACTAT)	0.587
TATAAGACTTGGGTTCTAACCTGTTGCAC (site TATAAGACTGT)	0.755
TATAATACTTGGGTTCTAACCTGTTGCGA (site TATAATACTTC)	0.32
TATAATACTTGGGTTCTAACCTGTTGCGA (site TATACTACTTA)	0.0449
TATAATGCTTGGGTTCTAACCTGTTGCGT (site ATCGGACCTCA)	0.15
TATAATGCTTGGGTTCTAACCTGTTGCGT (site TATAATGCTAC)	0.335
TATACTACTTGGGTTCTAACCTGTTGCTA (site TATAATACTTC)	0.511
TATACTACTTGGGTTCTAACCTGTTGCTA (site TATACTACTTA)	0.0716
TATAGCTCTTGGGTTCTAACCTGTTGCCT (site AATAGCTCTAG)	0.0791
TATAGCTCTTGGGTTCTAACCTGTTGCCT (site CATAGCTCTAG)	0.242
TATAGCTCTTGGGTTCTAACCTGTTGCCT (site GATAGCTCTAG)	0.106
TATAGCTCTTGGGTTCTAACCTGTTGCCT (site TATAGCTCTAG)	0.479
TATAGGGCTTGGGTTCTAACCTGTTGCCG (site GATAGGGCTCC)	0
TATAGGGCTTGGGTTCTAACCTGTTGCCG (site TATAGGGCTCG)	0.402
TATATATCTTGGGTTCTAACCTGTTGCAT (site AGGTGTCCTTC)	0.112
TATATATCTTGGGTTCTAACCTGTTGCAT (site TATATATCTAT)	0.23
TATCAGACTTGGGTTCTAACCTGTTGCAG (site TATCAGACTCT)	1.45
TATCAGACTTGGGTTCTAACCTGTTGCAG (site TCTCAGGCTCT)	0.121
TATCAGCCTTGGGTTCTAACCTGTTGCTT (site CATCAGCCTAC)	0.0522
TATCAGCCTTGGGTTCTAACCTGTTGCTT (site TATCAGCCTAA)	0.0238

Sequence	recombinant barcode read abundance (log10)
TATCCCTCTTGGGTTCTAACCTGTTGCCT (site ATCAAGCCTCT)	0.18
TATCCCTCTTGGGTTCTAACCTGTTGCCT (site TATCCCTCTAG)	1.14
TATCCGACTTGGGTTCTAACCTGTTGCCA (site TATCCGACTAG)	0.56
TATCCGACTTGGGTTCTAACCTGTTGCCA (site TATCCGACTCG)	0.142
TATCCGACTTGGGTTCTAACCTGTTGCCA (site TATCCGACTGG)	0.0584
TATCCGACTTGGGTTCTAACCTGTTGCCA (site TATCCGACTTG)	0.135
TATGGAGCTTGGGTTCTAACCTGTTGCTG (site AATGGGGCTCA)	0.523
TATGGAGCTTGGGTTCTAACCTGTTGCTG (site TATGGAGCTCA)	1.58
TATGGGACTTGGGTTCTAACCTGTTGCCT (site TATCGCACTAG)	0.0772
TATGGGACTTGGGTTCTAACCTGTTGCCT (site TATGGGACTAG)	1.25
TATGGTACTTGGGTTCTAACCTGTTGCGT (site GGGATACCTTA)	0.0757
TATGGTACTTGGGTTCTAACCTGTTGCGT (site TATGGTACTAC)	2.22
TATGGTTCTTGGGTTCTAACCTGTTGCCT (site TATGCTTCTAA)	0.0349
TATGGTTCTTGGGTTCTAACCTGTTGCCT (site TATGGTTCTAG)	0.502
TATTAGACTTGGGTTCTAACCTGTTGCCT (site AATTAGACTAG)	0.158
TATTAGACTTGGGTTCTAACCTGTTGCCT (site CATTAGACTAG)	0.13
TATTAGACTTGGGTTCTAACCTGTTGCCT (site GATTAGACTAG)	0.209
TATTAGACTTGGGTTCTAACCTGTTGCCT (site TATTAGACTAG)	0.225
TATTCTACTTGGGTTCTAACCTGTTGCGT (site TATTCTACTAC)	0.0342
TATTCTACTTGGGTTCTAACCTGTTGCGT (site TATTCTACTCC)	0.365
